The nature of data set [1]: in vitro. As to conditions: human, hela-ace2 cells.
Data set [2] is described as follows: in vitro. Particulars: human, hep2 cells.
The subject of data set [3] is HRV 14. The data set is described as follows: microbe, parasite or virus in culture. The class given is cell-based, Human Rhinovirus 14 strain 1059. As to conditions: Rhinovirus B, H1-HeLa, 48 h, read-out: HRV / H1 HeLa B 14 EC50.
A short description of data set [4]: in vitro. As to conditions: human, h1 hela cells.
Data set [5] deals with RSV A2. The data set is described as follows: microbe, parasite or virus in culture. The class given is cell-based. Particulars: human respiratory syncytial virus, HEp-2, 72 h, read-out: RSV A2 / Hep2 EC50.
The subject of data set [6] is DENV-2. The data set is described as follows: microbe, parasite or virus in culture. Type of data set: cell-based, DENV-2 16681. As to conditions: Dengue virus, DENV2, HepG2, 24 h, read-out: DENV-2 / HepG2 EC50.
Data set [7] deals with SARS-CoV-2. The data set is described as follows: microbe, parasite or virus in culture. Type of data set: cell-based, SARS-CoV-2 strain USA-WA1/2020. Particulars: Severe acute respiratory syndrome coronavirus 2, HeLa-ACE2, 24 h, read-out: SARS-CoV-2 / HeLa-ACE2 EC50.
Data set [8] can be described thus: in vitro. Particulars: human, hepg2 cells.

Each structure is given as a SMILES string.

As usually defined, the CC50 is the concentration at which the toxic effect on the cells reaches its halfway point. Read a low CC50 as harm at low concentration. Consider `COc1ncnc2c1c(C(N)=O)cn2[C@@H]1O[C@](F)(CO)[C@@H](O)[C@H]1O` [Example 38, 7-((2R,3R,4S,5S)-5-fluoro-3,4-dihydroxy-5-(hydroxymethyl)tetrahydrofuran-2-yl)-4-methoxy-7H-pyrrolo[2,3-d]pyrimidine-5-carboxamide], for which the CC50 at 24 h in data set [1] is less than 1 µM. Also, the CC50 in data set [2] and in data set [4] was 10 to 99 µM each time. For the same compound, the EC50 in data set [3] was greater than 10 µM; in data set [5] it was greater than 10 µM; in data set [6] it was 1 to 10 µM; in data set [7] it was greater than 10 µM. In data set [8], this compound displayed a CC50 at 72 h of 1 to 10 µM.

In data set [1], `COc1ncnc2c1ccn2[C@@H]1O[C@](F)(CO)C[C@H]1O` [Example 39, (2R,3R,5R)-5-fluoro-5-(hydroxymethyl)-2-(4-methoxy-7H-pyrrolo[2,3-d]pyrimidin-7-yl)tetrahydrofuran-3-ol] returned a CC50 at 24 h greater than 99 µM. Further, the CC50 in data set [2] and in data set [4] was greater than 99 µM each time. For the same compound, the EC50 in data set [3], in data set [5], in data set [6] and in data set [7] was greater than 10 µM throughout. Besides, the CC50 at 72 h in data set [8] is greater than 99 µM.

`CC(C)C(=O)OC[C@@]1(F)O[C@@H](n2ccc3c(N)ncnc32)[C@H](O)[C@@H]1O` [Example 46, ((2S,3S,4R,5R)-5-(4-amino-7H-pyrrolo[2,3-d]pyrimidin-7-yl)-2-fluoro-3,4-dihydroxytetrahydrofuran-2-yl)methyl isobutyrate] displayed a CC50 at 24 h in data set [1] of 1 to 10 µM. Also, the CC50 in data set [2] and in data set [4] was 10 to 99 µM throughout. Further, the EC50 in data set [3] is 0.1 to 1 µM; in data set [5], 0.1 to 1 µM; in data set [6], less than 0.1 µM; in data set [7] it was 0.1 to 1 µM. The compound further came in with a CC50 at 72 h in data set [8] of 1 to 10 µM.

Turning to `CC(C)C(=O)OC[C@@]1(F)O[C@@H](n2ccc3c(N)ncnc32)[C@H](OC(=O)C(C)C)[C@@H]1OC(=O)C(C)C` [Example 47, (2S,3S,4R,5R)-5-(4-amino-7H-pyrrolo[2,3-d]pyrimidin-7-yl)-2-fluoro-2-((isobutyryloxy)methyl)tetrahydrofuran-3,4-diyl bis(2-methylpropanoate)], in data set [1], the CC50 at 24 h lay within 10 to 99 µM. Moreover, the results for the CC50 in data set [2] and in data set [4] were 1 to 10 µM and 10 to 99 µM, respectively. In addition, the EC50 in data set [3] was 1 to 10 µM; in data set [5], less than 0.1 µM; in data set [6], less than 0.1 µM; in data set [7], 1 to 10 µM. In data set [8], this compound gave a CC50 at 72 h of 1 to 10 µM.

In data set [1], `N#C[C@@]1(c2cnc3c(N)ncnn23)O[C@](F)(CO)[C@@H](O)[C@H]1O` [Example 51, (2R,3R,4S,5S)-2-(4-aminoimidazo[2,1-f][1,2,4]triazin-7-yl)-5-fluoro-3,4-dihydroxy-5-(hydroxymethyl)tetrahydrofuran-2-carbonitrile] displayed a CC50 at 24 h greater than 99 µM. Further, the CC50 in data set [2] and in data set [4] was greater than 99 µM throughout. The EC50 in data set [3], in data set [5], in data set [6] and in data set [7] was greater than 10 µM each time. Moreover, the CC50 at 72 h in data set [8] is greater than 99 µM.

In data set [1], `Nc1ncnc2c1cnn2[C@@H]1O[C@](F)(CO)[C@@H](O)[C@H]1O` [Example 52, (2S,3S,4R,5R)-5-(4-amino-1H-pyrazolo[3,4-d]pyrimidin-1-yl)-2-fluoro-2-(hydroxymethyl)tetrahydrofuran-3,4-diol] showed a CC50 at 24 h of 1 to 10 µM. The CC50 in data set [2] and in data set [4] was 1 to 10 µM in each case. Moreover, the EC50 was 1 to 10 µM in data set [3], greater than 10 µM in data set [5], 1 to 10 µM in data set [6] and 1 to 10 µM in data set [7]. In data set [8], this compound had a CC50 at 72 h of less than 1 µM.

These data come from patent US20260325561A1, “4'-SUBSTITUTED NUCLEOSIDES AND NUCLEOTIDES AS ANTIVIRAL AGENTS” (THE SCRIPPS RESEARCH INSTITUTE, priority 2023, published 2026).
